This is an account of results in patent publication US8486919B2, “4-alkylresorcinol derivative and external preparation for skin containing the same” (Shiseido Company, Ltd., priority 2010, dated 2013).

Data set [1] concerns Mouse B16 melanoma cells. As to the kind of experiment: Melanin production inhibition test. Conditions: 3 days, ratio to solvent-only group. The format is cell-based. Here is the method:
(§1) The melanin production inhibitory effect and the cytotoxicity was studied according to the following method.
(§2) (1) Inoculation of Cells and Addition of Test Substances
(§3) Mouse B16 melanoma cells were inoculated in a six well plate at 100,000 cells/well. The next day, test substance solutions (solvent: dimethylsulfoxide) were added thereto and then subjected to the melanin production inhibition test and cytotoxicity test.
(3) Melanin Production Inhibition Test
Three days after the addition of the test substance solution, the medium was removed by aspiration. The cells were washed with a buffer (50 mM phosphate buffer, pH6.8), and then lysed by addition of 1M NaOH to measure an absorbance at 475 nm. Using the value thus measured as a relative value of the melanin amount, a ratio of the melanin amount (%) of the test substance-added group to the test substance-absent group (group in which only the solvent was added) was calculated. The lower the ratio of the melanin amount, the higher the melanin production-inhibitory effect.

For data set [2], the system named is Mouse B16 melanoma cells. In words: Cell proliferation test (cytotoxicity test, Alamar Blue). The format is cell-based. Conditions: 3 days, ratio to solvent-only group. On the procedure: as §1, §2, §3
(2) Cell Proliferation Test
Three days after the addition of the test substance solution, the medium was removed by aspiration. Then 1 mL of EMEM medium containing 10% Alamar Blue solution was added, and a reaction was allowed to proceed at 37° C. After 30 minutes, 100 μL of the reaction mixture was transferred to a 96 well plate and fluorescence was measured at an excitation wavelength of 544 nm and a measurement wavelength of 590 nm. Using the value thus measured as a relative value of cell count, a ratio of the cell count (% cell count) of the test substance-added group to the test substance-absent group (group in which only the solvent was added) was calculated. The higher the % cell count, the lower the cytotoxicity.
On the technique in general: Alamar Blue is a resazurin reagent that responds to reducing activity.

Setting [3] is: final concentration of test compound 0.9 μM.
Setting [4] is: final concentration of test compound 8.5 μM.
The mark [5] stands for this setting: final concentration of test compound 28 μM.
The mark [6] stands for this setting: final concentration of test compound 2.2 μM.
[7] abbreviates: final concentration of test compound 22 μM.
Where [8] appears, read: final concentration of test compound 220 μM.
The mark [9] stands for this setting: final concentration of test compound 1.0 μM.
Where [10] appears, read: final concentration of test compound 9.6 μM.
Where [11] appears, read: final concentration of test compound 32 μM.
Where [12] appears, read: final concentration of test compound 2.0 μM.
Setting [13] is: final concentration of test compound 6.6 μM.
Where [14] appears, read: final concentration of test compound 66 μM.
The mark [15] stands for this setting: final concentration of test compound 10 μM.
Where [16] appears, read: final concentration of test compound 33 μM.
Setting [17] is: final concentration of test compound 1.6 μM.
[18] abbreviates: final concentration of test compound 16 μM.
Where [19] appears, read: final concentration of test compound 52 μM.

The structures appear in SMILES notation.

Consider `O=P(O)(O)Oc1ccc(C2CCCCC2)c(OP(=O)(O)O)c1` [Compound 3, 1,3-bisphosphonooxy-4-cyclohexylbenzene], for which the “Melanin Amount Ratio (%)” value turned out to be 48% in the data set with Mouse B16 melanoma cells [1] (setting [3]), 20% in the data set on Mouse B16 melanoma cells [1] (setting [4]) and 15% in the data set with Mouse B16 melanoma cells [1] (setting [5]). Also, the “Cell Count (%)” value in the data set with Mouse B16 melanoma cells [2] (setting [3]) is reported as 102%; in the data set with Mouse B16 melanoma cells [2] (setting [4]), 105%; with Mouse B16 melanoma cells [2] (setting [5]), 101%.

For the compound `CCc1ccc(O)cc1O` [Comparative Compound 1, 4-ethylresorcinol], the “Melanin Amount Ratio (%)” value was determined as 69% in the data set with Mouse B16 melanoma cells [1] (setting [6]), 24% with Mouse B16 melanoma cells [1] (setting [7]) and 16% in the data set with Mouse B16 melanoma cells [1] (setting [8]). The “Cell Count (%)” value is recorded as 101% in the data set with Mouse B16 melanoma cells [2] (setting [6]), 102% in the data set on Mouse B16 melanoma cells [2] (setting [7]) and 93% in the data set with Mouse B16 melanoma cells [2] (setting [8]).

Regarding `CC(C)c1ccc(OP(=O)(O)O)cc1OP(=O)(O)O` [Compound 2, 1,3-bisphosphonooxy-4-isopropylbenzene], the figures for the “Melanin Amount Ratio (%)” value in the data set with Mouse B16 melanoma cells [1] (setting [9]), in the data set with Mouse B16 melanoma cells [1] (setting [10]) and in the data set on Mouse B16 melanoma cells [1] (setting [11]) were 47%, 16% and 13%, respectively. The “Cell Count (%)” value is on record as 99% in the data set on Mouse B16 melanoma cells [2] (setting [9]), 95% in the data set on Mouse B16 melanoma cells [2] (setting [10]) and 103% in the data set on Mouse B16 melanoma cells [2] (setting [11]).

For the compound `CC(C)c1ccc(O)cc1O` [Comparative Compound 2, 4-isopropylresorcinol], the “Melanin Amount Ratio (%)” value in the data set with Mouse B16 melanoma cells [1] (setting [12]) came out at 32%; in the data set with Mouse B16 melanoma cells [1] (setting [13]), 17%; with Mouse B16 melanoma cells [1] (setting [14]), 12%. The “Cell Count (%)” value with Mouse B16 melanoma cells [2] (setting [12]) is 99%; in the data set on Mouse B16 melanoma cells [2] (setting [13]), 97%; in the data set with Mouse B16 melanoma cells [2] (setting [14]), 98%.

Regarding `CCc1ccc(OP(=O)(O)O)cc1OP(=O)(O)O` [Compound 1, 1,3-bisphosphonooxy-4-ethylbenzene], the figures for the “Melanin Amount Ratio (%)” value in the data set on Mouse B16 melanoma cells [1] (setting [9]), in the data set with Mouse B16 melanoma cells [1] (setting [15]) and in the data set with Mouse B16 melanoma cells [1] (setting [16]) were 62%, 25% and 16%, respectively. Further, the “Cell Count (%)” value in the data set on Mouse B16 melanoma cells [2] (setting [9]) is listed as 101%; in the data set with Mouse B16 melanoma cells [2] (setting [15]), 108%; in the data set with Mouse B16 melanoma cells [2] (setting [16]) it was 113%.

As for `Oc1ccc(C2CCCCC2)c(O)c1` [Comparative Compound 3, 4-cyclohexylresorcinol], the “Melanin Amount Ratio (%)” value in the data set with Mouse B16 melanoma cells [1] (setting [17]) is recorded as 43%; in the data set on Mouse B16 melanoma cells [1] (setting [18]) it was 22%; in the data set with Mouse B16 melanoma cells [1] (setting [19]) it was 17%. In addition, the “Cell Count (%)” value with Mouse B16 melanoma cells [2] (setting [17]) is on record as 99%; with Mouse B16 melanoma cells [2] (setting [18]), 98%; in the data set with Mouse B16 melanoma cells [2] (setting [19]), 76%.
